Where two headings read alike, the source gives them in different places.
Experiments:
[1] = system: human airway smooth muscle cells; test: [Ca2+]i increase in cultured primary human airway smooth muscle cells (Fluo-4 AM); format: cell-based; settings: for effect on saccharin-elicited [Ca2+]i increase: absence of extracellular calcium, FIG. 1d; for [Ca2+]i response in human ASM cells: 1.0 mM tastant, FIG. 1c
Procedure: (§1) Dose response curves for [Ca^2+]i and ex vivo tracheal ring studies were analyzed by iterative non-linear (sigmoidal) least squares fitting. Results from all studies were compared using paired or unpaired two-way t-tests (depending on study design), with P<0.05 considered significant. When multiple comparisons were sought, an ANOVA with post-hoc t-tests was utilized with a correction for multiple comparisons. Data are presented as mean±standard error.

isolated human ASM cells = test: Magnetic twisting cytometry, stiffness of isolated human ASM cells; format: cell-based; settings: for effect on saccharin-promoted relaxation of isolated ASM: 1 mM saccharin, U73122 1 μM, H89 100 nM, IbTx and ChTx 100 nM (FIG. 7b); for change in single-cell stiffness from baseline: isolated human ASM cells, FIG. 7a
Procedure: Dynamic changes in baseline cell stiffness were measured as an indicator of contraction and relaxation of isolated human ASM cells using magnetic twisting cytometry as described in detail previously^15. In brief, Arg-Gly-Asp coated ferromagnetic microbeads bound to adherent human ASM cells were magnetized horizontally and then twisted in a vertically aligned homogenous magnetic field that was varying sinusoidally in time. Sinusoidal twisting magnetic field caused both a rotation and a pivoting displacement of the bead: such forced bead motions are, in turn, impeded by internal stresses developed by the cell. Lateral bead displacements in response to the resulting oscillatory torque were detected with a spatial resolution of ˜5 nm, and the ratio of specific torque to bead displacements was computed and expressed as the cell stiffness in units of Pascal/nm (Pa/nm). For each individual ASM cell, baseline stiffness was measured for the first 60 sec, and after drug addition stiffness was measured continuously for the next 540 sec. […] For each cell, stiffness was normalized to its baseline stiffness prior to the agonist stimulation.

ASM cells = test: Membrane potential of ASM cells (membrane potential-sensitive fluorescent dye); format: cell-based, human; settings: for change of membrane potential: 60 mM KCl, 1.0 μM histamine, 1 mM saccharin or chloroquine
Procedure: Primary human ASM cells were obtained from a commercial source (Clonetics) and maintained as described^31, with experiments performed using cells at passages 3-8. […] The effects of bitter tastants on membrane potential of whole ASM cells was measured using a membrane potential-sensitive fluorescent dye (Molecular Devices) as described^19 in a 96 well plate format with 50,000 cells/well. Excitation was at 530 nm and emission acquired at 565 nm. Data were collected in real time for 300 sec and are shown as relative fluorescent units.

intact mouse tracheas = test: Ex vivo relaxation of intact mouse tracheal rings (isometric myograph); settings: for relaxation of airways contracted by serotonin: 1.0 mM serotonin, FIG. 4b; for EC50: Mus musculus
Procedure: Briefly, tracheal rings fitted between a fixed wire and a transducer-coupled wire were maintained in Krebs buffer at 37° C. with aeration from 95% O2, 5% CO2.
as §1

H292 cells = test: [Ca2+]i-stimulated dose-response in H292 cells; format: cell-based, human; settings: for EC50: Homo sapiens
Procedure: (§2) In one example, cells are grown in multi-well dishes, loaded with a fluorescence-based calcium indicator dye, and test compounds are added with subsequent monitoring of the change in fluorescence indicative of a change in intracellular calcium [Ca^2+]i release. Test compounds can include, e.g., those with structural similarities to the known bitter taste receptor agonists or antagonists.
(§3) If appropriate, airway cells can also be tested using them within tracheal rings, as described herein and as is well-known in the art.

BEAS2B cells = test: [Ca2+]i-stimulated dose-response in BEAS2B cells; format: cell-based, human
Procedure: as §2, §3

mouse model of asthma = test: Airway resistance in control and ovalbumin-sensitized mice (flexiVent); format: in vivo; settings: for decrease in airway resistance: aerosol during methacholine bronchoconstriction, quinine 150 μg, denatonium 200 μg
Procedure: Sensitization of 6-week old BALB/c mice was carried out by i.p. injections of […] ovalbumin in 200 μl alum, or alum alone (control) on days 0 and 14. Mice were then challenged with 1.0% aerosolized ovalbumin on days 19, 21 and 24. Twenty-four hours after the last challenge, mice were sedated, intubated and the flexiVent system (SCIREQ) was utilized for ventilation and measurement of airway resistance as previously described^40. Ventilation was at 150 breaths/min with a tidal volume of 240 μl and positive end expiratory pressure of 2.5 cm H2O. After stabilization, mice were challenged with doses of aerosolized methacholine (2.0, 4.0, 8.0 and 16 mg/ml in the nebulizer) until the sustained airway resistance became ˜5-fold greater than baseline. Three minutes after the last […] inhalation, the bitter tastants quinine (150 μg) or denatonium (200 μg), or the β-agonist albuterol (3.0 μg) were administered by aerosol over 10 sec. Resistance measurements (Raw, cm H2O/ml/sec) were taken every 30 sec throughout the experiment.

human ASM cells [2] = settings: 0.3 mM saccharin, 1.0 μM histamine
human ASM cells [3] = test: PKA-mediated VASP phosphorylation, Western blot in human ASM cells; format: cell-based; settings: 1.0 mM chloroquine or saccharin, 10 μM forskolin
Procedure: Primary human ASM cells were obtained from a commercial source (Clonetics) and maintained as described^31, with experiments performed using cells at passages 3-8. These cells consisted of >95% airway smooth muscle as previously ascertained^31. For detecting changes in [Ca^2+]i attached cells in 96-well plates (80,000 cells/well) were loaded with Fluo-4 AM (BD Biosciences) with probenecid for one hour at 37° C. Receptor agonists were added at the indicated concentrations at 37° C. by an automated pipetting system in triplicate and the 525 nm signals were generated by excitation at 485 nm using a Flex Station II (Molecular Devices). Data was acquired every 1.5 sec for 60 sec. Unless otherwise stated, studies were performed in media containing 1.5 mM calcium. In some studies, ASM were transfected with T2R10 siRNA (Invitrogen) or a scrambled-sequence siRNA control by electroporation (Nucleofector, Lonza) using 4×10^6 cells and 4 μg of siRNA. Twenty-four hours later cells were transferred to the 96-well plates for the [Ca^2+]i assay. […] Samples were acetylated and cAMP measured by a highly sensitive ^125I-cAMP based radioimmunoassay as previously described^32. […] The effects of bitter tastants on membrane potential of whole ASM cells was measured using a membrane potential-sensitive fluorescent dye (Molecular Devices) as described^19 in a 96 well plate format with 50,000 cells/well. […]

Molecule: NCCOB(c1ccccc1)c1ccccc1 [2APB]
- effect on saccharin-elicited [Ca2+]i increase [1]: partially inhibited

Molecule: O=S(=O)(NCCNC/C=C/c1ccc(Br)cc1)c1cccc2cnccc12 [H89]
- effect on saccharin-promoted relaxation of isolated ASM (isolated human ASM cells): not blocked

Molecule: [Cl-].[K+] [KCl]
- change of membrane potential (ASM cells): membrane depolarization

Molecule: COC(=O)[C@@H](N)CCCNC(=N)N[N+](=O)[O-] [L-NAME]
- effect on bitter tastant-mediated airway relaxation (intact mouse tracheas): not altered

Molecule: C[C@H](NC(=NCC(=O)O)Nc1ccc(C#N)cc1)c1ccccc1 [SC45647]
- [Ca2+]i response in human ASM cells [1]: no response

Molecule: C/C=C(/C)C(=O)O[C@H]1C(C)=C2[C@H]([C@@H]1OC(=O)CCCCCCC)[C@@](C)(OC(C)=O)C[C@H](OC(=O)CCC)[C@@]1(O)[C@H]2OC(=O)[C@@]1(C)O [Thapsigargin, thapsigargin]
- effect on chloroquine and other bitter tastant-mediated [Ca2+]i stimulation ([1]; 10 μM thapsigargin pre-incubation 30 min): blocked
- effect on chloroquine-mediated relaxation of intact airway rings (intact mouse tracheas; 10 μM thapsigargin pre-incubation, chloroquine 3.0 mM): blocked

Molecule: COc1ccc2c(c1)CC[C@@H]1[C@@H]2CC[C@]2(C)[C@@H](NCCCCCCN3C(=O)C=CC3=O)CC[C@@H]12 [U73122]
- effect on saccharin-elicited [Ca2+]i increase [1]: ablated
- effect on saccharin-promoted relaxation of isolated ASM (isolated human ASM cells): eliminated

Molecule: COc1cccc2c1cc([N+](=O)[O-])c1c(C(=O)O)cc3c(c12)OCO3 [aristocholic acid]
- [Ca2+]i response in human ASM cells [1]: [Ca^2+]i responses

Molecule: CCN(CC)CCCC(C)Nc1ccnc2cc(Cl)ccc12 (stereo not drawn) [chloroquine]
- [Ca2+]i response in human ASM cells [1]: evoked increased [Ca^2+]i
- EC50 ([1]; Homo sapiens, cultured ASM cells, FIG. 1a, read-out: EC50 for [Ca2+]i release): 70 ± 10 µM
- efficacy, net change in fluorescence units ([1]; human airway smooth muscle cells, FIG. 14): 84,317 fluorescence units
- EC50 ([1]; human airway smooth muscle cells, FIG. 14, read-out: potency, [Ca2+]i dose-response curve): 70 µM
- efficacy (H292 cells; H292 cells): 37,136 fluorescence units
- EC50 (H292 cells; NCI-H292, read-out: potency, [Ca2+]i-stimulated dose-response curve): 74 µM
- efficacy (BEAS2B cells): 13,995 fluorescence units
- EC50 (BEAS2B cells; Homo sapiens, BEAS-2B, read-out: potency, [Ca2+]i-stimulated dose-response curve): 90 µM
- relaxation of airways contracted by serotonin (intact mouse tracheas): marked relaxation
- EC50 (intact mouse tracheas; read-out: EC50 for relaxation, contraction stimulated by acetylcholine): 93 ± 4.3 µM
- EC50 (intact mouse tracheas; read-out: EC50 for relaxation, contraction stimulated by serotonin): 110 ± 32 µM
- relaxation of acetylcholine-mediated constriction (intact mouse tracheas; submaximal dose of chloroquine (200 μM), 1.0 mM acetylcholine): ~67%
- change in single-cell stiffness from baseline (isolated human ASM cells): resulted in ASM relaxation
- change of membrane potential (ASM cells): membrane hyperpolarization

Molecule: COc1cc2c(c(OC)c1OC)-c1ccc(OC)c(=O)cc1[C@@H](NC(C)=O)CC2 [colchicine]
- [Ca2+]i response in human ASM cells [1]: relatively low response

Molecule: CC[N+](CC)(CC(=O)Nc1c(C)cccc1C)Cc1ccccc1 [denatonium]
- [Ca2+]i response in human ASM cells [1]: evoked increased [Ca^2+]i
- decrease in airway resistance (mouse model of asthma; normal mice): 44±6%
- decrease in airway resistance (mouse model of asthma; ovalbumin-sensitized mice): 57±4%

Molecule: O=C1OC2(c3ccccc31)c1ccc(O)c(O)c1Oc1c2ccc(O)c1O [gallein]
- effect on saccharin-elicited [Ca2+]i increase [1]: ablated

Molecule: NCCc1c[nH]cn1 [histamine]
- change in single-cell stiffness from baseline (isolated human ASM cells): contraction
- change of membrane potential (ASM cells): membrane depolarization
- spatial pattern of [Ca2+]i response (human ASM cells [2]): rapid rise in [Ca^2+]i throughout the cell

Molecule: COc1ccc2c(c1)c(CC(=O)O)c(C)n2C(=O)c1ccc(Cl)cc1 [indomethacin]
- effect on bitter tastant-mediated airway relaxation (intact mouse tracheas): not altered

Molecule: CC(C)NCC(O)c1ccc(O)c(O)c1 (stereo not drawn) [isoproterenol]
- relaxation after chloroquine exposure, washout and acetylcholine re-challenge (intact mouse tracheas; maximal concentration of isoproterenol (30 μM)): 29±4.3%
- maximal relaxation response, loss of active contraction / reduction in active tension (intact mouse tracheas; tracheas contracted with 1.0 mM acetylcholine): 30±9.2%
- change in single-cell stiffness from baseline (isolated human ASM cells): relaxation

Molecule: CC(=O)OC(C)C[N+](C)(C)C (stereo not drawn) [methacholine]
- concentration of inhaled methacholine required to increase baseline airway resistance by 5-fold (mouse model of asthma; non-sensitized mice): 16 mg/mL
- concentration of inhaled methacholine required to increase baseline airway resistance by 5-fold (mouse model of asthma; ovalbumin-sensitized mice): 8 mg/mL

Molecule: C=C[C@H]1C[N@@]2CC[C@H]1C[C@H]2[C@H](O)c1ccnc2ccc(OC)cc12 [quinine]
- [Ca2+]i response in human ASM cells [1]: [Ca^2+]i responses
- efficacy (H292 cells; H292 cells): 133,201 fluorescence units
- EC50 (H292 cells; NCI-H292, H292 cells, read-out: potency, [Ca2+]i-stimulated dose-response curve): 703 µM
- relaxation of airways contracted by serotonin (intact mouse tracheas): marked relaxation
- decrease in airway resistance (mouse model of asthma; normal mice): 53±2.96%
- decrease in airway resistance (mouse model of asthma; ovalbumin-sensitized mice): 50±8%

Molecule: O=C1NS(=O)(=O)c2ccccc21 [saccharin]
- [Ca2+]i response in human ASM cells [1]: evoked increased [Ca^2+]i
- change in single-cell stiffness from baseline (isolated human ASM cells): resulted in ASM relaxation
- PKA-mediated VASP phosphorylation (human ASM cells [3]): Neither chloroquine nor saccharin promoted VASP phosphorylation

Molecule: OCc1ccccc1O[C@@H]1O[C@H](CO)[C@@H](O)[C@H](O)[C@H]1O [salicin]
- [Ca2+]i response in human ASM cells [1]: no response

Molecule: OC[C@H]1O[C@H](O[C@]2(CCl)O[C@H](CCl)[C@@H](O)[C@@H]2O)[C@H](O)[C@@H](O)[C@H]1Cl [sucralose]
- [Ca2+]i response in human ASM cells [1]: no response

Molecule: COC(=O)[C@@H]1[C@H]2C[C@H]3c4[nH]c5ccccc5c4CCN3C[C@@H]2CC[C@@H]1O [yohimbine]
- [Ca2+]i response in human ASM cells [1]: [Ca^2+]i responses

Molecule: charybdotoxin
- effect on saccharin-promoted relaxation of isolated ASM (isolated human ASM cells): ablated

Molecule: iberiotoxin (QFTDVDCSVSKECWSVCKDLFGVDRGKCMGKKCRCYQ; UniProt P24663 1-37, looked up) [specific BKCa channel antagonist]
- effect on chloroquine-promoted relaxation in the isolated mouse airway (intact mouse tracheas; 1 mM chloroquine, 100 nM iberiotoxin pretreatment): attenuated
- effect on saccharin-promoted relaxation of isolated ASM (isolated human ASM cells): ablated
- effect on bitter tastant-promoted membrane hyperpolarization (ASM cells; 100 nM iberiotoxin preincubation): completely inhibited
